Assay results published in patent US20250170151A1 (REMEDY PHARMACEUTICALS, INC., priority 2022, published 2025).
≈ marks a conversion by molar mass, not a printed value. Where two headings read alike, the source gives them in different places.

Experiments:
physchem = experiment: physchem
Method: An additional critical requirement was that, after reconstitution, the reconstituted formulation must remain sufficiently stable and soluble.
The vial pH after reconstitution (20 ml) can be used to ensure that the appropriate compounding pH was achieved during manufacture. The target reconstitution pH is 9.8 with a range of 9.2-10.2. In some aspects, the concentration after reconstitution is 0.3 mg/ml (6 mg/20 ml).

[1] = Glyburide solubility in intravenous dosing solutions; format: physicochemical
[2] = Mock IV infusion: sorption of glyburide to administration sets; format: physicochemical; conditions: for initial drop in the glyburide concentration: PVC administration sets
Description: Thus, there was significant unpredictability in how much of the drug product would be administered to a given patient at any given time depending on various factors. […] At lower NaOH:GLY ratios, a longer period of time is required for the drug concentration to recover.

[3] = Stability of glyburide after reconstitution with Tris buffer, HPLC (Example 6); format: physicochemical; conditions: for Glyburide content (mg/mL) at T0 h / Glyburide content (mg/mL) at T2 h / Glyburide content (mg/mL) at T24 h: +50% excess NaOH, 0.22 um filtered, HPLC; for Recon vial pH: lyophilized formulation +50% excess NaOH
Method: The contents of the vial were dissolved by gentle shaking and pH after reconstitution was measured. About 1 mL of sample was withdrawn at 0, 1, 2 and 24 hours post reconstitution and filtered through 0.22 um membrane filters and analyzed by HPLC.

[4] = Studies with phosphate and glycine buffering agents (Example 3); format: physicochemical; conditions: buffering agents phosphate (pKa 7.21) and glycine (pKa 9.8)
Description: For example, and without limiting the foregoing disclosure, the buffering agent may be Tris, lysine, arginine, an ethylenediamine, an imidazole, a 4-(2-Hydroxyethyl)morpholine, a triethanolamine, a glucamine, a deanol (dimethylaminoethanol), phosphate, phosphate buffered saline (PBS), or a combination thereof.

[5] = aqueous buffer, cited from earlier work
[6] = cited from earlier work
[7] = Drug reconstitution and dilution experiments (Example 2); conditions: vial reconstitution pH above 10.2; 6 mg vial, 20 ml WFI, 500 ml saline bag
[8] = recon diluent 10 mM tris pH 7.99
[9] = recon diluent 10 mM tris pH 8.25

- Solubility (physchem; pH 9.25, aqueous buffer): 480 µg/mL (≈ 972 µM)
- Solubility (physchem; pH 9.37, aqueous buffer): 720 µg/mL (≈ 1460 µM)
- Solubility ([1]; formulations of the present disclosure): > 15 µg/mL
- Solubility ([1]; prior art intravenous glyburide dosing solutions): < 5.7 µg/mL
- pH in the final dosing solution ([2]; drug product with NaOH:GLY molar ratio of 13.8 reconstituted into saline with a pH of 7): 9.9
- drug sorption to administration components made of PVC or PUR ([2]; formulation of the present disclosure with the specific buffering agents): eliminated
- dip in glyburide concentration ([2]; formulations of the present disclosure, diluted (final dosing) pH less than 7.8, PVC administration sets (FIG. 3)): at least 10%
- initial drop in the glyburide concentration ([2]; prior art formulation, NaOH:GLY ratio 3:1, 1 L saline bag): about 40%
- initial drop in the glyburide concentration ([2]; prior art formulations with varying NaOH:GLY molar ratios, 1 L saline bag): at least 10%
- pH of reconstituted formulation ([2]; prior art glyburide formulations with sufficiently high base to glyburide ratios): ~10
- Glyburide content (mg/mL) at T0 h [3, 8]: 0.29 mg/mL
- Glyburide content (mg/mL) at T2 h [3, 8]: 0.29 mg/mL
- Glyburide content (mg/mL) at T24 h [3, 8]: 0.29 mg/mL
- Glyburide content (mg/mL) at T0 h [3, 9]: 0.29 mg/mL
- Glyburide content (mg/mL) at T2 h [3, 9]: 0.29 mg/mL
- Glyburide content (mg/mL) at T24 h [3, 9]: 0.29 mg/mL
- Recon vial pH ([3]; recon diluent 20 mL 10 mM tris pH 7.99): 8.65
- Recon vial pH ([3]; recon diluent 20 mL 10 mM tris pH 8.25): 8.78
- precipitation of glyburide after reconstitution ([3]; recon pH of 8.65 and 8.78, through 24 hours): No precipitation
- stabilization of glyburide by buffering agent [4]: did not effectively stabilize glyburide
- final IV bag pH [7]: greater than 9.2
SMILES: COc1ccc(Cl)cc1C(=O)NCCc1ccc(S(=O)(=O)NC(=O)NC2CCCCC2)cc1 [glyburide, 5-chloro-N-(4-[N-(cyclohexylcarbamoyl)sulfamoyl]phenethyl)-2-methoxybenzamide]
- sorption in mock infusion test (FIG. 1) ([2]; prior art glyburide formulations, various administration materials): significant sorption immediately at the start of infusion
- binding to filter components ([2]; prior art intravenous glyburide formulations, all filter components (data not shown)): readily and extensively binds to all filter components
- prevention of sorption to medical materials by buffering agent [4]: did not prevent sorption to medical materials
- Solubility ([5]; pH 2, 37° C.): 0.07 µg/mL (≈ 0.142 µM)
- Solubility ([5]; pH 3, 37° C.): 0.06 µg/mL (≈ 0.121 µM)
- Solubility ([5]; pH 5, 37° C.): 0.1 µg/mL (≈ 0.202 µM)
- Solubility ([5]; pH 6, 37° C.): 0.62 µg/mL (≈ 1.26 µM)
- Solubility ([5]; pH 7, 37° C.): 5.62 µg/mL (≈ 11.4 µM)
- Solubility ([5]; pH 8, 37° C.): 51.2 µg/mL (≈ 104 µM)
- Solubility ([5]; pH 9, 37° C.): 98.6 µg/mL (≈ 200 µM)
- Solubility ([5]; pH 11.8, 37° C.): 531.6 µg/mL (≈ 1080 µM)
- Solubility ([6]; all measured pH values from pH 4 to pH 9, Britton-Robinson buffer): below 1 mg/mL
- Solubility ([6]; pH 4, 27° C., Britton-Robinson buffer): 4 µg/mL (≈ 8.1 µM)
- Solubility ([6]; pH 6, 27° C., Britton-Robinson buffer): 5 µg/mL (≈ 10.1 µM)
- Solubility ([6]; pH 7, 27° C., Britton-Robinson buffer): 11 µg/mL (≈ 22.3 µM)
- Solubility ([6]; pH 8, 27° C., Britton-Robinson buffer): 80 µg/mL (≈ 162 µM)
- Solubility ([6]; pH 9, 27° C., Britton-Robinson buffer): 600 µg/mL (≈ 1210 µM)
